Reference: US20150197802A1 (priority 2012, published 2015)
Read-outs that look alike come from different tables or passages of the source.

Columns and labels:
HPTC = assay type: cell-based, human
renal proximal tubule = details: cited from earlier work; for classification of the test compound with regard to nephrotoxicity: group of the test compound; for nephrotoxic effects in humans: clinical, clinically relevant concentrations
[1] = test system: human primary renal proximal tubular cells (HPTC); test: IL-6 and IL-8 expression (qPCR) in renal proximal tubular cells after 16 h exposure

## [Cl][Cd][Cl] [CdCl2]
HPTC; two batches of HPTC, high doses (2.5 mg/ml gentamicin, 10 mg/ml CdCl2), FIG. 1
  IL-8 expression, up-regulation compared with the other marker genes tested: highest levels of up-regulation

## [Cl][Cu][Cl] [CuCl2]
Renal proximal tubule
  classification of the test compound with regard to nephrotoxicity: PT-specific nephrotoxin

## N.N.[Cl][Pt][Cl] [cisplatin]
[1]; HPTC 1, highest concentration tested, dose-response FIG. 2
  cell death: massive cell death

## C[C@@H]1C[C@H]2[C@@H]3CCC4=CC(=O)C=C[C@]4(C)[C@@]3(F)[C@@H](O)C[C@]2(C)[C@@]1(O)C(=O)CO [dexamethasone]
Renal proximal tubule
  classification of the test compound with regard to nephrotoxicity: not nephrotoxic

## OCCO [ethylene glycol]
Renal proximal tubule
  classification of the test compound with regard to nephrotoxicity: non-PT-specific nephrotoxin

## C[C@H](Cn1cnc2c(N)ncnc21)OCP(=O)(O)O [tenofovir]
Renal proximal tubule
  nephrotoxic effects in humans: injures the renal proximal tubules

## CN(C)[C@@H]1C(O)=C(C(N)=O)C(=O)[C@@]2(O)C(O)=C3C(=O)c4c(O)cccc4[C@@](C)(O)[C@H]3C[C@@H]12 [tetracycline]
Renal proximal tubule
  nephrotoxic effects in humans: usually no obvious nephrotoxic effects, but can induce AKI and ESRD in patients with pre-existing kidney disease
[1]; 1 μg/ml to 1000 μg/ml, 16 h
  test result in the IL-6/IL-8 expression method (positive = predicted PT-specific nephrotoxin): positive

## gentamicin
HPTC
  IL-8 expression, up-regulation compared with the other marker genes tested: highest levels of up-regulation
